Measured values: patent US20050136488A1, “Cellular membrane protein assay” (priority 2003, published 2005)
Where two headings read alike, the source gives them in different places. Each block holds one substance with its values, some of them ahead of it.

Key:
[1] = tested on: GLUT4-PL in CHO/pGLUT4-PL.1 cells; settings: 30 min, serum-containing media, thrombin 20 units/ml
Method: In this experiment, CHO/pGLUT4-PL.1 cells were treated for 30 min with 0, 0.1, 1, and 10 μM insulin in serum-containing media. The liquid above the cells was then replaced with buffer containing thrombin at 20 units/ml and processed for the intact-cell EFC assay.
1) Seed cells into individual wells at a density of 10,000 cells in 100 μl media. For transient transfectants, replace the media above cells with fresh media one day post-transfection. Perform the intact-cell EFC assay two days after seeding the cells. To assay GLUT4-PL at the cell surface under basal growth conditions (serum-containing media, no exogenous insulin), proceed to step 3.
2) For insulin induction, add 20 μl/well of insulin diluted in media to 6× system concentration (e.g., add 20 μl of 6 μM insulin to the 100 μl liquid above cells to achieve an insulin system concentration of 1 μM). Return plate to incubator for 30 min. Starving cells of serum 2-to-4 hours prior to adding insulin diluted in serum-free media may achieve a larger insulin-response window.
3) Remove the media above the cells by aspiration. Add 50 μl/well thrombin solution (20 units/ml thrombin; 1×PBS; 0.1 mg/ml BSA; 10 mM each KF and NaAzide (NaN3)). Return plate to incubator for 1 hr. […]
5) Add 30 μl/well CL Substrate. […] Readings are taken at periodic intervals from 15 min to 1 hr on a luminescence plate reader.

[2] = target: T1, GLUT4-PL in CHO/pGLUT4-PL.1 cells (Homo sapiens, UniProt P14672, INS67[…]); assay: intact-cell EFC assay, thrombin release of ProLabel from GLUT4-PL; format: cell-based; settings: thrombin 60 units/ml, intact CHO cells expressing pGLUT4-PL.1
T1 construct: expressed in transfected cells; host or cells: CHO cells transfected with plasmid pGLUT4-PL.1
T1 sequence (P14672 with tags, fused parts or gaps INS67[withheld]): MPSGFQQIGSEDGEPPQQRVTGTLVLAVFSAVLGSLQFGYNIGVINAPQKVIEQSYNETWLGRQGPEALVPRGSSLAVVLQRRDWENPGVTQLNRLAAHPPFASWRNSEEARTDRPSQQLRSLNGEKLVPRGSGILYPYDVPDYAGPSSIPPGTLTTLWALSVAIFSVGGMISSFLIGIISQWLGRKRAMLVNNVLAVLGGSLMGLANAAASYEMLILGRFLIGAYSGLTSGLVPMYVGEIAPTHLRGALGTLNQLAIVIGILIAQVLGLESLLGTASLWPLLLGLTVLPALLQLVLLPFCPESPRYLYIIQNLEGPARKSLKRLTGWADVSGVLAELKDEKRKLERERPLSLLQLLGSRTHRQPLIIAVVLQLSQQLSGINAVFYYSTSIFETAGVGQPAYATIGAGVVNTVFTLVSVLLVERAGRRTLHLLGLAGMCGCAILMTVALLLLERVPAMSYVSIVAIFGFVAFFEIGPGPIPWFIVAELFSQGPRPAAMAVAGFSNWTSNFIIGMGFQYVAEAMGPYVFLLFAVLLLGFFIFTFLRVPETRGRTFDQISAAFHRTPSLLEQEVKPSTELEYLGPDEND
Method: Detection of GLUT4-PL after protease cleavage. Central to the concept of using EFC to monitor GLUT4-PL at the cell surface is the proteolytic release of the internal ProLabel tag from the protein's first exofacial loop. Initial studies were therefore directed at developing and characterizing an intact-cell EFC protocol using thrombin protease. All of the experiments described below were carried out in 96-well assay plates. To test whether thrombin treatment could enhance EFC signal, intact cells expressing pGLUT4-PL.1 were treated with 50 μl buffer alone or buffer containing thrombin at increasing concentrations. Eighty μl of a solution containing EA and the protease inhibitor AEBSF (7.5 mM final concentration) were added subsequently, followed by 30 μl of chemiluminescent substrate. Thrombin treatment led to a dose-dependent enhancement of EFC activity, with 60 units/ml enhancing EFC activity 4.4-fold over untreated cells (FIG. 4). To test whether thrombin proteolytic activity per se, and not a non-specific component of the thrombin formulation was responsible for the increased EFC signal, a control experiment was performed by inactivating thrombin with AEBSF prior to its addition to cells.

[3] = tested on: HeLa/IκB-PL cells; assay: cell integrity control, intact-cell EFC assay on cells expressing cytoplasmic reporter IκB-PL; format: cell-based; settings: series of increasing thrombin concentrations
Method: CHO/pGLUT4-PL.1 and HeLa/IκB-PL cells were assayed in parallel with a series of increasing thrombin concentrations (FIG. 6). As had been observed above, thrombin treatment of CHO/pGLUT4-PL.1 cells led to a dose-dependent increase in EFC activity.

[4] = target: GLUT4-ProLabel fusion protein encoded by plasmid pGLUT4-PL.1 (human); assay: cell-based or functional assay
Chain of GLUT4-ProLabel fusion protein encoded by plasmid pGLUT4-PL.1 (human) (chain, as listed by the source limits assumed): as the sequence (P14672 with tags, fused parts or gaps INS67[withheld]) above

Substance: insulin
- increase in EFC activity relative to the no-insulin control ([1]; 1 μM insulin): 15%
- increase in EFC activity relative to the no-insulin control ([1]; 10 μM insulin): 40%

Substance: thrombin
- enhancement of EFC activity over untreated cells [2]: 4.4 fold
- dose-dependent increase in EFC activity (cell integrity) [3]: no such increase was observed

- EFC activity (enzyme fragment complementation, chemiluminescence) of intact CHO/pGLUT4-PL.1 cells [4]: 4.4 fold
Substance: thrombin protease (enzyme)
